Measured values from ChEMBL document CHEMBL1201862, “PubChem BioAssay data set” (2004).
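Test compounds were applied to cells in 96-well plates for 48 hours at 5 doses. GI50 = concentration required for 50% inhibition of growth.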 Calls of active or inactive are those of the source. Rule as the data show it: active = GI50 up to about 1.1 µM and inactive = higher.

Legend:
Test in all cases: NCI tumour cell line growth inhibition, 48 h
[1] = test system: DU-145
[2] = test system: HCC 2998
[3] = test system: COLO 205
[4] = test system: MDA-MB-231
[5] = test system: SK-OV-3
[6] = test system: SNB-19
[7] = test system: U-251
[8] = test system: RPMI-8226
[9] = test system: RXF 393
[10] = test system: HL-60
[11] = test system: MDA-N
[12] = test system: SK-MEL-28
[13] = test system: SF-295
[14] = test system: SK-MEL-2
[15] = test system: HT-29
[16] = test system: NCI/ADR-RES
[17] = test system: SR
[18] = test system: OVCAR-8
[19] = test system: NCI-H522
[20] = test system: PC-3

Row | Compound | GI50 [1] | GI50 [2] | GI50 [3] | GI50 [4] | GI50 [5] | GI50 [6] | GI50 [7] | GI50 [8] | GI50 [9] | GI50 [10] | GI50 [11] | GI50 [12] | GI50 [13] | GI50 [14] | GI50 [15] | GI50 [16] | GI50 [17] | GI50 [18] | GI50 [19] | GI50 [20]
1 | COC1(CC[C@@H](C)COC2OC(CO)C(O)C(O)C2O)O[C@H]2C[C@H]3[C@@H]4CC=C5C[C@@H](OC6OC(CO)C(OC7OC(C)C(O)C(O)C7O)C(O)C6OC6OC(C)C(O)C(O)C6O)CC[C@]5(C)[C@H]4CC[C@]3(C)[C@H]2[C@@H]1C (some centres not stated) | 2.28 µM (inactive) | 3.74 µM (inactive) | 5.15 µM (inactive) | 1.6 µM (inactive) | 1.66 µM (inactive) | 3.17 µM (inactive) | 1.81 µM (inactive) | 6.62 µM (inactive) | 3.41 µM (inactive) | 18.2 µM (inactive) | 2.61 µM (inactive) | 2.97 µM (inactive) | 2.82 µM (inactive) | 4.39 µM (inactive) | 2.68 µM (inactive) | 3.18 µM (inactive) | 25.1 µM (inactive) | 3.53 µM (inactive) | 2.08 µM (inactive) | 3.13 µM (inactive)
2 | CCOC(=O)C(C)c1nc2cc(N3CCOCC3)c(F)cc2[nH]c1=O (configuration not stated) | > 100 µM (inactive) | > 100 µM (inactive) | > 100 µM (inactive) | > 100 µM (inactive) | > 100 µM (inactive) | > 100 µM (inactive) | > 100 µM (inactive) | > 100 µM (inactive) | > 100 µM (inactive) | > 100 µM (inactive) | > 100 µM (inactive) | > 100 µM (inactive) | > 100 µM (inactive) | > 100 µM (inactive) | > 100 µM (inactive) | > 100 µM (inactive) | > 100 µM (inactive) | > 100 µM (inactive) | 53.1 µM (inactive) | > 100 µM (inactive)
3 | CNC(=O)O/N=C1\N(C)CN(c2ccccc2)C12CCN(CCCC(=O)c1ccc(F)cc1)CC2 | > 100 µM (inactive) | 43 µM (inactive) | 18.2 µM (inactive) | 33.5 µM (inactive) | > 100 µM (inactive) | > 100 µM (inactive) | > 100 µM (inactive) | > 100 µM (inactive) | 83.6 µM (inactive) | 82 µM (inactive) | 39.4 µM (inactive) | > 100 µM (inactive) | > 100 µM (inactive) | 60.8 µM (inactive) | 29.1 µM (inactive) | 45.9 µM (inactive) | 39.3 µM (inactive) | > 100 µM (inactive) | 99.8 µM (inactive) | > 100 µM (inactive)
4 | Nc1csc(-c2scc3c2OCCO3)c1N | 19.8 µM (inactive) | 22.4 µM (inactive) | 28.8 µM (inactive) | 20.6 µM (inactive) | – | 32.7 µM (inactive) | 15.6 µM (inactive) | 16.9 µM (inactive) | 17.9 µM (inactive) | 20.5 µM (inactive) | 15.4 µM (inactive) | 17.5 µM (inactive) | 17.7 µM (inactive) | 17.5 µM (inactive) | 20.7 µM (inactive) | 22.6 µM (inactive) | 28.6 µM (inactive) | 16.1 µM (inactive) | 16.3 µM (inactive) | 23 µM (inactive)
5 | CCCCc1c2c(c(C)c3c1C(=O)OC3)Oc1ccccc1O2 | 2.51 µM (inactive) | 0.646 µM (active) | 0.855 µM (active) | 2.57 µM (inactive) | 1.57 µM (inactive) | 3.95 µM (inactive) | 0.57 µM (active) | 1.25 µM (inactive) | 0.975 µM (active) | 0.316 µM (active) | 0.145 µM (active) | > 63.2 µM (inactive) | 0.467 µM (active) | 0.541 µM (active) | – | 0.382 µM (active) | 0.186 µM (active) | 3.67 µM (inactive) | 0.217 µM (active) | 0.442 µM (active)
6 | O=[N+]([O-])c1ccc(-c2nnc(C34CC5CC(CC(C5)C3)C4)o2)cc1 | > 100 µM (inactive) | > 100 µM (inactive) | > 100 µM (inactive) | > 100 µM (inactive) | > 100 µM (inactive) | > 100 µM (inactive) | > 100 µM (inactive) | > 100 µM (inactive) | > 100 µM (inactive) | > 100 µM (inactive) | > 100 µM (inactive) | > 100 µM (inactive) | > 100 µM (inactive) | > 100 µM (inactive) | > 100 µM (inactive) | > 100 µM (inactive) | > 100 µM (inactive) | – | > 100 µM (inactive) | > 100 µM (inactive)
7 | CSc1ccccc1P(CCP(c1ccccc1SC)c1ccccc1SC)c1ccccc1SC | 54.5 µM (inactive) | 4.88 µM (inactive) | 0.697 µM (active) | 8.81 µM (inactive) | 16.3 µM (inactive) | 35.4 µM (inactive) | 4.2 µM (inactive) | 4.47 µM (inactive) | 30.8 µM (inactive) | 0.4 µM (active) | 50.5 µM (inactive) | 76.2 µM (inactive) | 7.08 µM (inactive) | 53.3 µM (inactive) | 1.28 µM (inactive) | > 93.1 µM (inactive) | 1.11 µM (active) | 8.73 µM (inactive) | 28.1 µM (inactive) | 0.912 µM (active)
